In brackets after ≈: the same amount, converted by molar mass.
What was measured:
[1] = system: Kleb. pneumoniae EK-6; experiment: Antibacterial activities (MIC), Kleb. pneumoniae EK-6; type: cell-based; settings: Klebsiella pneumoniae, EK6
From the text: (§1) (1) Antibacterial activities (MIC):

[2] = system: Escher. coli NIHJ; experiment: Antibacterial activities (MIC), Escher. coli NIHJ; type: cell-based; settings: Escherichia coli
From the text: as §1

[3] = system: Proteus morganii EP-14; experiment: Antibacterial activities (MIC), Proteus morganii EP-14; type: cell-based; settings: Morganella morganii, EP14
From the text: as §1

[4] = system: Pseud. aeruginosa EP-01; experiment: Antibacterial activities (MIC), Pseud. aeruginosa EP-01; type: cell-based; settings: Pseudomonas aeruginosa, EP01
From the text: as §1

[5] = system: Ser. marcescens ES-75; experiment: Antibacterial activities (MIC), Ser. marcescens ES-75; type: cell-based; settings: Serratia marcescens, ES75
From the text: as §1

[6] = system: Staph. aureus 209-P; experiment: Antibacterial activities (MIC), Staph. aureus 209-P; type: cell-based; settings: Staphylococcus aureus
From the text: as §1

[7] = Urinary excretion rate in mice; type: in vivo, ICR male mice; settings: mouse, sc, 20 mg/kg subcutaneous, urine up to 6 hours, bioassay
Experimental: ICR male mice (body weight: 20-30 g) were used. Each compound was dissolved in an M/15 phosphate buffer (pH 7.0) and administered in an amount of 20 mg/kg by the subcutaneous route. Urine was collected up to 6 hours after the administration. The concentration of the compound was determined by the bioassey technique (the agar-well method) using Pseudomonas aeruginosa as a test microorganism. On the basis of the thus-determined concentration, its excreted amount was obtained. The urinary excretion rate was then calculated from the excreted amount based on the amount administered.

Compound `CC(=O)OCC1=C(C(=O)O)N2C(=O)[C@@H](NC(=O)[C@H](NC(=O)c3coc4cc(O)c(O)cc4c3=O)c3ccc(OCC(=O)O)cc3)[C@H]2SC1` [Example 1, 7β-[D-2-(4-Carboxymethoxyphenyl)-2-(6,7-dihydroxy-4-oxo-4H-1-benzopyran-3-carboxamido)-acetamido]-3-acetoxymethyl-3-cephem-4-carboxylic acid] has an MIC [1] of no more than 0.05 µg/mL, an MIC [2] of 0.2 µg/mL (≈ 0.293 µM) and an MIC [3] of 6.25 µg/mL (≈ 9.14 µM). The MIC [4] was no more than 0.05 µg/mL, the MIC [5] was 0.2 µg/mL (≈ 0.293 µM) and the MIC [6] was 25 µg/mL (≈ 36.6 µM).

For `Cc1nnc(SCC2=C(C(=O)O)N3C(=O)[C@@H](NC(=O)[C@H](NC(=O)c4coc5cc(O)c(O)cc5c4=O)c4ccc(OCC(=O)O)cc4)[C@H]3SC2)s1` [Example 6, Disodium 7β-[D-2-(4-carboxymethoxyphenyl)-2-(6,7-dihydroxy-4-oxo-4H-1-benzopyran-3-carboxamido)-acetamido]-3-[5-methyl-2-(1,3,4-thiadiazolyl)]-thiomethyl-3-cephem-4-carboxylate], the MIC [1] was no more than 0.05 µg/mL, the MIC [2] was 0.8 µg/mL and the MIC [3] was 1.56 µg/mL. For the same compound, the MIC [4] was no more than 0.05 µg/mL, the MIC [5] was 0.2 µg/mL and the MIC [6] was 3.13 µg/mL.

Work on `Cn1nnnc1SCC1=C(C(=O)O)N2C(=O)[C@@H](NC(=O)[C@H](NC(=O)c3coc4c(O)c(O)ccc4c3=O)c3ccc(OCC(=O)O)cc3)[C@H]2SC1` [Example 9, 7β-[D-2-(4-Carboxymethoxyphenyl)-2-(7,8-dihydroxy-4-oxo-4H-1-benzopyran-3-carboxamido)acetamido]-3-(1-methyl-5-tetrazolyl)thiomethyl-3-cephem-4-carboxylic acid] yielded an MIC [1] of no more than 0.05 µg/mL, an MIC [2] of 0.4 µg/mL (≈ 0.541 µM) and an MIC [3] of 1.56 µg/mL (≈ 2.11 µM). It also gave an MIC [4] of no more than 0.05 µg/mL, an MIC [5] of 0.2 µg/mL (≈ 0.27 µM) and an MIC [6] of 25 µg/mL (≈ 33.8 µM).

`Cn1nnnc1SCC1=C(C(=O)O)N2C(=O)[C@@H](NC(=O)[C@H](NC(=O)c3cc4ccc(O)c(O)c4oc3=O)c3ccc(OCC(=O)O)cc3)[C@H]2SC1` [Example 10, 7β-[D-2-(4-Carboxymethoxyphenyl)-2-(7,8-dihydroxyphenyl)-2-(7,8-dihydroxy-2-oxo-2H-1-benzopyran-3-carboxamido)acetamido]-3-(1-methyl-5-tetrazolyl)-thiomethyl-3-cephem-4-carboxylic acid] showed an MIC [1] of no more than 0.05 µg/mL, an MIC [2] of 0.4 µg/mL (≈ 0.541 µM) and an MIC [3] of 3.13 µg/mL (≈ 4.23 µM). The MIC [4] was no more than 0.05 µg/mL, the MIC [5] was 0.1 µg/mL (≈ 0.135 µM) and the MIC [6] was 12.5 µg/mL (≈ 16.9 µM).

`CCn1cc(C(=O)N[C@@H](C(=O)N[C@@H]2C(=O)N3C(C(=O)O)=C(CSc4nnnn4C)CS[C@H]23)c2ccc(OCC(=O)O)cc2)c(=O)c2cc(O)c(O)cc21` [Example 12, 7β-[D-2-(4-Carboxymethoxyphenyl)-2-(6,7-dihydroxy-1,4-dihydro-1-ethyl-4-oxoquinolin-3-carboxamido)-acetamido]-3-(1-methyl-5-tetrazolyl)thiomethyl-3-cephem-4-carboxylic acid] showed an MIC [1] of no more than 0.05 µg/mL, an MIC [2] of 0.4 µg/mL (≈ 0.522 µM) and an MIC [3] of 1.56 µg/mL (≈ 2.03 µM). For the same compound, the MIC [4] was 0.1 µg/mL (≈ 0.13 µM), the MIC [5] was no more than 0.05 µg/mL and the MIC [6] was 50 µg/mL (≈ 65.2 µM).

For `CN(C)CCn1nnnc1SCC1=C(C(=O)O)N2C(=O)[C@@H](NC(=O)[C@H](NC(=O)c3coc4cc(O)c(O)cc4c3=O)c3ccc(OCC(=O)O)cc3)[C@H]2SC1` [Example 14, Disodium 7β-[D-2-(4-carboxymethoxyphenyl)-2-(6,7-dihydroxy-4-oxo-4H-1-benzopyran-3-carboxamido)-acetamido]-3-[1-(2-N,N-dimethylaminoethyl)-5-tetrazolyl]-thiomethyl-3-cephem-4-carboxylate], the MIC [1] was no more than 0.05 µg/mL, the MIC [2] was 0.4 µg/mL and the MIC [3] was 3.13 µg/mL. For the same compound, the MIC [4] was 0.1 µg/mL, the MIC [5] was 0.2 µg/mL and the MIC [6] was 25 µg/mL.

Compound `CC(=O)Oc1ccc2c(=O)c(C(=O)N[C@@H](C(=O)N[C@@H]3C(=O)N4C(C(=O)O)=C(CSc5nnnn5CC(=O)O)CS[C@H]34)c3ccc(OCC(=O)O)cc3)coc2c1OC(C)=O` [Example 16, 7β-[D-2-(4-carboxymethoxyphenyl)-2-(7,8-diacetoxy-4-oxo-4H-1-benzopyran-3-carboxamido)acetamido]-3-(1-carboxymethyl-5-tetrazolyl)thiomethyl-3-cephem-4-carboxylic acid] has an MIC [1] of 0.2 µg/mL (≈ 0.23 µM), an MIC [2] of 0.8 µg/mL (≈ 0.922 µM) and an MIC [3] of 6.25 µg/mL (≈ 7.2 µM). For the same compound, the MIC [4] was 0.8 µg/mL (≈ 0.922 µM), the MIC [5] was 0.8 µg/mL (≈ 0.922 µM) and the MIC [6] was 100 µg/mL (≈ 115 µM).

`CC(=O)OCC1=C(C(=O)O)N2C(=O)[C@@H](NC(=O)[C@H](NC(=O)c3coc4c(OC(C)=O)c(OC(C)=O)ccc4c3=O)c3ccc(OCC(=O)O)cc3)[C@H]2SC1` [Example 17, 7β-[D-2-(4-Carboxymethoxyphenyl)-2-(7,8-diacetoxy-4-oxo-4H-1-benzopyran-3-carboxamido)acetamido]-3-acetoxymethyl-3-cephem-4-carboxylic acid] gave an MIC [1] of no more than 0.05 µg/mL, an MIC [2] of 0.8 µg/mL (≈ 1.04 µM) and an MIC [3] of 12.5 µg/mL (≈ 16.3 µM). For the same compound, the MIC [4] was 0.8 µg/mL (≈ 1.04 µM), the MIC [5] was 1.56 µg/mL (≈ 2.03 µM) and the MIC [6] was 50 µg/mL (≈ 65.1 µM).

`O=C(O)COc1ccc([C@@H](NC(=O)c2coc3c(O)c(O)ccc3c2=O)C(=O)N[C@@H]2C(=O)N3C(C(=O)O)=C(CSc4nnnn4CC(=O)O)CS[C@H]23)cc1` [Example 20, Trisodium 7β-[D-2-(4-carboxymethoxyphenyl)-2-(7,8-dihydroxy-4-oxo-4H-1-benzopyran-3-carboxamido)-acetamido]-3-(1-carboxymethyl-5-tetrazolyl)thiomethyl-3-cephem-4-carboxylate] gave an MIC [1] of 0.1 µg/mL, an MIC [2] of 0.8 µg/mL and an MIC [3] of 6.25 µg/mL. It also gave a dose excreted at 6 h [7] of 16%, an MIC [4] of 0.8 µg/mL and an MIC [5] of 0.8 µg/mL. The MIC [6] was 100 µg/mL.

With `CC(=O)Oc1cc2oc(C)c(C(=O)N[C@@H](C(=O)N[C@@H]3C(=O)N4C(C(=O)O)=C(CSc5nnnn5CC(=O)O)CS[C@H]34)c3ccc(OCC(=O)O)cc3)c(=O)c2cc1OC(C)=O` [Example 22, 7β-[D-2-(4-Carboxymethoxyphenyl)-2-(6,7-diacetoxy-2-methyl-4-oxo-4H-1-benzopyran-3-carboxamido)-acetamido]-3-(1-carboxymethyl-5-tetrazolyl)thiomethyl-3-cephem-4-carboxylic acid] the MIC [1] was no more than 0.05 µg/mL, the MIC [2] was 0.2 µg/mL (≈ 0.227 µM) and the MIC [3] was 3.13 µg/mL (≈ 3.55 µM). The MIC [4] was 0.2 µg/mL (≈ 0.227 µM), the MIC [5] was 0.1 µg/mL (≈ 0.113 µM) and the MIC [6] was 100 µg/mL (≈ 113 µM).

`CC(=O)Oc1ccc2c(=O)c(C(=O)N[C@@H](C(=O)N[C@@H]3C(=O)N4C(C(=O)O)=C(CSc5nnnn5CC(=O)O)CS[C@H]34)c3ccc(OCC(=O)O)cc3)c(C)oc2c1OC(C)=O` [Example 23, 7β-[D-2-(4-Carboxymethoxyphenyl)-2-(7,8-diacetoxy-2-methyl-4-oxo-4H-1-benzopyran-3-carboxamido)-acetamido]-3-(1-carboxymethyl-5-tetrazolyl)thiomethyl-3-cephem-4-carboxylic acid] showed an MIC [1] of no more than 0.05 µg/mL, an MIC [2] of 0.4 µg/mL (≈ 0.454 µM) and an MIC [3] of 6.25 µg/mL (≈ 7.09 µM). For the same compound, the MIC [4] was 0.8 µg/mL (≈ 0.907 µM), the MIC [5] was 0.8 µg/mL (≈ 0.907 µM) and the MIC [6] was 100 µg/mL (≈ 113 µM).

For `CC(=O)OCC1=C(C(=O)O)N2C(=O)[C@@H](NC(=O)[C@H](NC(=O)c3c(C)oc4cc(O)c(O)cc4c3=O)c3ccc(OCC(=O)O)cc3)[C@H]2SC1` [Example 29, Disodium 7β-[D-2-(4-carboxymethoxyphenyl)-2-(6,7-dihydroxy-2-methyl-4-oxo-4H-1-benzopyran-3-carboxamido)acetamido]-3-acetoxymethyl-3-cephem-4-carboxylate], the MIC [1] was no more than 0.05 µg/mL, the MIC [2] was 0.4 µg/mL and the MIC [3] was 12.5 µg/mL. It also gave an MIC [4] of 0.2 µg/mL, an MIC [5] of 0.4 µg/mL and an MIC [6] of 50 µg/mL.

Work on `CCn1cc(C(=O)N[C@@H](C(=O)N[C@@H]2C(=O)N3C(C(=O)O)=C(COC(C)=O)CS[C@H]23)c2ccc(OCC(=O)O)cc2)c(=O)c2cc(O)c(O)cc21` [Example 35, Disodium 7β-[D-2-(4-carboxymethoxyphenyl)-2-(6,7-dihydroxy-1-ethyl-1,4-dihydro-4-oxoquinoline-3-carboxamido)acetamido]-3-acetoxymethyl-3-cephem-4-carboxylate] yielded an MIC [1] of no more than 0.05 µg/mL, an MIC [2] of 0.8 µg/mL and an MIC [3] of 12.5 µg/mL. For the same compound, the MIC [4] was 0.2 µg/mL, the MIC [5] was 1.56 µg/mL and the MIC [6] was 50 µg/mL.

For `CCOC(=O)Oc1cc2oc(C)c(C(=O)N[C@@H](C(=O)N[C@@H]3C(=O)N4C(C(=O)O)=C(COC(C)=O)CS[C@H]34)c3ccc(OCC(=O)O)cc3)c(=O)c2cc1OC(=O)OCC` [Example 36], the MIC [1] was no more than 0.05 µg/mL, the MIC [2] was 0.8 µg/mL (≈ 0.95 µM) and the MIC [3] was 12.5 µg/mL (≈ 14.8 µM). The MIC [4] was 0.1 µg/mL (≈ 0.119 µM), the MIC [5] was 0.8 µg/mL (≈ 0.95 µM) and the MIC [6] was 25 µg/mL (≈ 29.7 µM).

`CO[C@@]1(NC(=O)[C@H](NC(=O)c2c(C)oc3cc(O)c(O)cc3c2=O)c2ccc(OCC(=O)O)cc2)C(=O)N2C(C(=O)[O-])=C(C[n+]3ccc(C(N)=O)cc3)CS[C@@H]21` [Example 49, 7β-[D-2-(4-Carboxymethoxyphenyl)-2-(6,7-dihydroxy-2-methyl-4-oxo-4H-1-benzopyran-3-carboxamido)-acetamido]-7α-methoxy-3-(4-carbamoylpyridinium)-methyl-3-cephem-4-carboxylate] gave a dose excreted at 6 h [7] of 35%.

For `CC(=O)Oc1cc2oc(C)c(C(=O)N[C@@H](C(=O)N[C@@H]3C(=O)N4C(C(=O)[O-])=C(C[n+]5ccc(C(N)=O)cc5)CS[C@H]34)c3ccc(OCC(=O)O)cc3)c(=O)c2cc1OC(C)=O` [Example 56, 7β-[D-2-(4-Carboxymethoxyphenyl)-2-(6,7-diacetoxy-2-methyl-4-oxo-4H-1-benzopyran-3-carboxamido)acetamido]-3-(4-carbamoylpyridinium)methyl-3-cephem-4-carboxylate], the MIC [1] was no more than 0.05 µg/mL, the MIC [2] was 0.8 µg/mL (≈ 0.948 µM) and the MIC [3] was 6.25 µg/mL (≈ 7.41 µM). The MIC [4] was 0.2 µg/mL (≈ 0.237 µM), the MIC [5] was 0.8 µg/mL (≈ 0.948 µM) and the MIC [6] was 25 µg/mL (≈ 29.6 µM).
